Measurements taken from patent publication US7662574B2, “Use of a G protein-coupled receptor and its cognizant ligand in the identification of compounds that affect prolactin secretion” (Takeda Pharmaceutical Company Limited, priority 1999, dated 2010).

Experiments:
rOT7T022L = biological target: T1, rOT7T022L (Rattus norvegicus, UniProt Q9EP86); assay: Site sensor (Cytosensor) acidification rate in rOT7T022L receptor-expressing CHO cells; type: cell-based; details: peptide exposed to cells for 7 minutes and 2 seconds; FIG. 8
T1 construct: expressed in transfected cells
T1 sequence (Q9EP86 whole entry): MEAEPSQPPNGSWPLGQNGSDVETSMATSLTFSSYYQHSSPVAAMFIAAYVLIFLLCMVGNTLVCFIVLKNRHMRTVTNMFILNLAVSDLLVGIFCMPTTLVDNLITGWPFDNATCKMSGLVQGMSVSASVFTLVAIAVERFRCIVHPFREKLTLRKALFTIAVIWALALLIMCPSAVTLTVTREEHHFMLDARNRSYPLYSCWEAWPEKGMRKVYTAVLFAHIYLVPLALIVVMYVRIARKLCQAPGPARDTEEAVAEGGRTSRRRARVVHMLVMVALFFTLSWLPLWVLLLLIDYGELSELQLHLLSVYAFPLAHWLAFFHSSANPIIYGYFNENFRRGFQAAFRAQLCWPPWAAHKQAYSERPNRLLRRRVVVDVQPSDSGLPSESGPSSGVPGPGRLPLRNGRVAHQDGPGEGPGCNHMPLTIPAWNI
Experimental: The rOT7T022L receptor-expressing CHO cells obtained in Example 7 (2) above were inoculated on capsules for site sensor in 2.7×10^5 cells/capsule. After incubation overnight, the site sensor was mounted to a workstation for the site sensor. A medium for assay (low buffered RMP11640 medium supplemented with 0.1% bovine serum albumin), which was set in the flow path of the site sensor, was supplied to the cells in a pump cycle of ON (80 seconds) and OFF (40 seconds). A rate of change in […] from 8 to 30 seconds after the pump stopped was calculated as an acidification rate. A change of the acidification rate with passage of time was monitored; when stable reading was obtained, the flow path was switched to expose each peptide to the cells for 7 minutes and 2 seconds. In the acidification rate of each well, the data for 3 cycles immediately before the peptide exposure was made 100% for standardization.

Human 0T7T022 receptor = biological target: T2, Human 0T7T022 receptor (Homo sapiens, UniProt Q9GZQ6); assay: Effect of pertussis toxin on cAMP production inhibiting activity in human 0T7T022 receptor-expressing CHO cells; type: cell-based; details: 0.1 μM peptide, 1 μM forskolin, 100 ng/ml pertussis toxin overnight; FIG. 15
T2 construct: expressed in transfected cells; host or cells: CHO cells
T2 sequence (Q9GZQ6 whole entry): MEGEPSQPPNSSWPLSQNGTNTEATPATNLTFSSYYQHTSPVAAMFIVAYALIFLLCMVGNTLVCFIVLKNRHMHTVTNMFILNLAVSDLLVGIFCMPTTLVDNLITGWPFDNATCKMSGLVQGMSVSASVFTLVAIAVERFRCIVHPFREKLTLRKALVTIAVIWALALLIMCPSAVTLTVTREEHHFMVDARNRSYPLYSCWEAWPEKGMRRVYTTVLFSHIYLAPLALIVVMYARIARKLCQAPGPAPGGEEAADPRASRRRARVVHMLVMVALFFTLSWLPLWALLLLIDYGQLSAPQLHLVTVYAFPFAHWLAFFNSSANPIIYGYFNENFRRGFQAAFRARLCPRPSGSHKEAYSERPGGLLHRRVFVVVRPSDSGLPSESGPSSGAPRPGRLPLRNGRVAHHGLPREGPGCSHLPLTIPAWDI
Experimental: Human 0T7T022 receptor-expressing CHO cells obtained in Example 21 were inoculated on a 24-well plate in a concentration of 1×10^5 cells/well. After culturing overnight, the medium was exchanged by a medium added with 100 ng/ml pertussis toxin (Sigma, Inc.) or with a control medium followed by further incubation overnight. The cells were rinsed with Hanks' buffer (HBSS) supplemented with 0.05% BSA and 0.2 mM IBMX and then preincubated at 37° C. for 30 minutes in the same buffer. Next, the cells were incubated at 37° C. for 30 minutes after the buffer was exchanged by Hanks' buffer alone (HBSS) supplemented with 0.05% BSA and 0.2 mM IBMX (black column), or by HBSS further added with 1 μM forskolin only (white column), or by HBSS added with 1 μM forskolin and 0.1 μM RFRP-1-12 (peptide having the 81 (Met) to 92 (Phe) amino acid sequence in SEQ ID NO: 1) (hatched column). After completion of the incubation, cAMP in the cells of each well was extracted and quantified according to the method of cAMP EIA Kit (Amersham, Inc.).

[1] = test system: pituitary hormone level in plasma; assay: Pituitary hormone level in plasma after administration into the third ventricle; type: in vivo, Wistar rats; details: for plasma prolactin level: vs PBS control
Experimental: The effect of the peptide shown by SEQ ID NO: 39 administered into the third ventricle on pituitary hormone level in plasma, was explored. Mature male Wistar rats (body weights at operation: about 290-350 g) were anesthetized with 50 mg/kg of pentobarbital, i.p., and each rat was immobilized in a rat brain stereotaxic apparatus. The incisor bar was set 3.3 mm lower from the interaural line. The skull was exposed, and using a dental drill a hole was made on the bone for implantation of a guide cannula.
In addition, an anchor screw was buried in one position around the hole. A stainless-steel guide cannula, AG-12 (0.4 mm inner diameter, 0.5 mm outer diameter, EICOM Co., Ltd.), was inserted in such a manner that its tip would be situated in the upper part of the third ventricle. Following the atlas of Paxinos and Watson (1986), the stereotaxic coordinates were set to AP: +7.2 mm (from the interaural line), L: 0.0 mm, and H: +2.0 mm (from the interaural line). The guide cannula was secured to the skull using instant adhesive, dental cement and an anchor screw. A stainless-steel dummy cannula, AD-12 (0.35 mm outer diameter, EICOM Co., Ltd.), was then passed through the guide cannula and locked in position with a cap nut (EICOM Co., Ltd.). After the operation the rats were housed in individual cages and kept for at least a week for postoperative recuperation before starting the experiment.
The operated rat was anesthetized with 50 mg/kg of pentobarbital, i.p., and immobilized in the dorsal position on a necropsy pad. A catheter (SP35, Natsume Seisakusho Co., Ltd.) was inserted into the right jugular vein. On the following day, 400 μl of blood was drawn through the jugular vein catheter. To prevent clotting, a syringe was filled beforehand with 20 μl of saline containing 200 U/ml of heparin. The cap nut and dummy cannula were removed from the rat skull and instead, a stainless steel microinjection cannula AMI13 (0.17 mm inner diameter, 0.35 mm outer diameter, EICOM Co., Ltd.) connected to a Teflon tube (50 cm long, 0.1 mm inner diameter, 0.4 mm outer diameter, EICOM Co., Ltd.) was inserted. The length of the microinjection cannula was adjusted beforehand so that its tip would be exposed from the guide cannula by 1 mm. One end of the Teflon tube was connected to a microsyringe pump and either PBS or the peptide shown by SEQ ID NO: 39 dissolved in PBS was injected, in a total volume of 10 μl, into the third ventricle at a flow rate of 5 μl/min. After a 1 minute standby time following the infusion, the microinjection cannula was disconnected and the dummy cannula was locked in position again with a cap nut. Immediately before the initiation of intraventricular administration and 10, 20, 30, 40, and 60 minutes after the initiation of administration, 400 μl aliquots of blood were collected via the cannula inserted into the jugular vein. Each blood sample collected was centrifuged (5,000 rpm, 10 min.) with a high-speed refrigerated microcentrifuge (MR-150, Tommy Seiko) and the supernatant (plasma) was recovered. The amount of prolactin in the plasma was determined by radioimmunoassay.
The results were shown in terms of a mean±S.E.M. To examine if there was a significant difference between the group administered with the peptide shown by SEQ ID NO: 39 dissolved in PBS and the control group administered with PBS alone, Student's t-test was used. According to the two-tailed test, the risk percentage of 5% or less was assumed to be statistically significant.

[2] = 10 nmols into the third ventricle

Molecule	reaction of rOT7T022L-expressing CHO cells (acidification rate) (rOT7T022L)	cAMP production inhibiting activity in cells treated with pertussis toxin (Human 0T7T022 receptor)	level of ACTH in plasma [1, 2]	level of GH in plasma [1, 2]	level of LH in plasma [1, 2]	level of TSH in plasma [1, 2]	plasma prolactin level ([1]; 10 minutes after 10 nmols into the third ventricle)	plasma prolactin level ([1]; 20 minutes after 10 nmols into the third ventricle)	plasma prolactin level ([1]; 30 minutes after 10 nmols into the third ventricle)	plasma prolactin level ([1]; 40 minutes after 10 nmols into the third ventricle)	plasma prolactin level ([1]; 60 minutes after 10 nmols into the third ventricle)
CC(C)C[C@H](NC(=O)[C@H](CC(N)=O)NC(=O)[C@@H]1CCCN1C(=O)[C@@H](N)C(C)C)C(=O)N1CCC[C@H]1C(=O)N[C@@H](CCC(N)=O)C(=O)N[C@@H](CCCNC(=N)N)C(=O)N[C@@H](Cc1ccccc1)C(N)=O	strongly showed dose-dependent reaction	–	–	–	–	–	–	–	–	–	–
H-MPHSFANLPLRF-NH2	strongly showed dose-dependent reaction	lost	none showed any significant change	none showed any significant change	none showed any significant change	none showed any significant change	tended to increase	significantly increased	significantly increased	significantly increased	a significant difference was noted
